Test results from ChEMBL document CHEMBL1143045, “Tricyclic isoxazolines: identification of R226161 as a potential new antidepressant that combines potent serotonin reuptake inhibition and alpha2-adrenoceptor antagonism” (Bioorg Med Chem, 2007).
The source made the active and inactive calls. The rule behind the calls is not given here.

What was measured:
[1] = target: T1, Alpha-2C adrenergic receptor (Homo sapiens, UniProt P18825); test: Displacement of [3H]rawolscine from human cloned adrenergic Alpha-2C receptor transfected in CHO cells; format: cell-based
T1 sequence (P18825 whole entry): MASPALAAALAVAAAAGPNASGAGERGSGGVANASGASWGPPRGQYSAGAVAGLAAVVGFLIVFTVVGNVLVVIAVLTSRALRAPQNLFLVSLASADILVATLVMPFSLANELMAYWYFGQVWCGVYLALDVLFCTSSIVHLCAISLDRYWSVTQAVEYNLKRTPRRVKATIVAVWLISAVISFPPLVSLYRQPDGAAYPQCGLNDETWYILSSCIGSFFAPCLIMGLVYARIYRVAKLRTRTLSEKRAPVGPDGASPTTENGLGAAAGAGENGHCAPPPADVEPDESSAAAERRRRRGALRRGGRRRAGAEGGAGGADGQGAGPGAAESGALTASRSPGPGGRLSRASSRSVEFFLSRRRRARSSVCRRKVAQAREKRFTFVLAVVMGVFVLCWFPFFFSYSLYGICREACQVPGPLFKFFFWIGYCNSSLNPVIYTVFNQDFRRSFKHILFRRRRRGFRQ

[2] = target: Sodium-dependent serotonin transporter (Homo sapiens, UniProt P31645); test: Displacement of [3H]paroxetine from human cloned 5HTT receptor transfected in CHO cells; format: cell-based
Sequence of Sodium-dependent serotonin transporter (P31645 whole entry): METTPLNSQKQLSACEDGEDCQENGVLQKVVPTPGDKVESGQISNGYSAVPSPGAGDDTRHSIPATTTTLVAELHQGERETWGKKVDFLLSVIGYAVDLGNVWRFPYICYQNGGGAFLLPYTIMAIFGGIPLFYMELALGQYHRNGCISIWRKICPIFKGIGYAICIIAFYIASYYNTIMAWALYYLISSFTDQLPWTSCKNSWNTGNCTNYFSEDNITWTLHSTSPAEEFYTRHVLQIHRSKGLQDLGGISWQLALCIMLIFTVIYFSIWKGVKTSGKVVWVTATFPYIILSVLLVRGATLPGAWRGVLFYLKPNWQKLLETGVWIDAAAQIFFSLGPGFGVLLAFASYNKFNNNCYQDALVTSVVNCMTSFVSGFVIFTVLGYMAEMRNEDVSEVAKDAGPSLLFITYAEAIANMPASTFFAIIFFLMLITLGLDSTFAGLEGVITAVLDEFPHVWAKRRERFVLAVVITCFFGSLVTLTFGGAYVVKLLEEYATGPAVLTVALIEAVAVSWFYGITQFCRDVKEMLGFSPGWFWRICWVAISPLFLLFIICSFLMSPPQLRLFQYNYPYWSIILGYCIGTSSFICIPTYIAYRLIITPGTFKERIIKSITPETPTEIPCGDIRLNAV

[3] = target: T2, Alpha-2B adrenergic receptor (Homo sapiens, UniProt P18089); test: Displacement of [3H]rawolscine from human cloned adrenergic alpha-2B receptor transfected in CHO cells; format: cell-based
T2 sequence (P18089 whole entry): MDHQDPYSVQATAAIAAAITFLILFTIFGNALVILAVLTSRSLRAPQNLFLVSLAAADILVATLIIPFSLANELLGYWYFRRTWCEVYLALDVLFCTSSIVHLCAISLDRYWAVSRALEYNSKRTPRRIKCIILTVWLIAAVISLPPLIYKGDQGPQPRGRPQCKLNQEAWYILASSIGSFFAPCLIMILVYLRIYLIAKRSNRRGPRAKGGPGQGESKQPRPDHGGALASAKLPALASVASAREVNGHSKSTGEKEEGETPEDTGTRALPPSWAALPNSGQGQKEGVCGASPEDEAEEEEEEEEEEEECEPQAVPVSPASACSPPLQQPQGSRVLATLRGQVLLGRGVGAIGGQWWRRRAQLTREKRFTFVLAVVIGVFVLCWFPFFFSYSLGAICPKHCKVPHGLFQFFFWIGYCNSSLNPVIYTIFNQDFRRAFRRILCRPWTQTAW

[4] = target: Sodium-dependent serotonin transporter (Rattus norvegicus) (UniProt P31652); test: Antagonism of p-chloroamphetamine-induced excitation in po dosed Wistar rat after 1 hr; format: functional, organism-based
Sequence of Sodium-dependent serotonin transporter (Rattus norvegicus) (P31652 whole entry): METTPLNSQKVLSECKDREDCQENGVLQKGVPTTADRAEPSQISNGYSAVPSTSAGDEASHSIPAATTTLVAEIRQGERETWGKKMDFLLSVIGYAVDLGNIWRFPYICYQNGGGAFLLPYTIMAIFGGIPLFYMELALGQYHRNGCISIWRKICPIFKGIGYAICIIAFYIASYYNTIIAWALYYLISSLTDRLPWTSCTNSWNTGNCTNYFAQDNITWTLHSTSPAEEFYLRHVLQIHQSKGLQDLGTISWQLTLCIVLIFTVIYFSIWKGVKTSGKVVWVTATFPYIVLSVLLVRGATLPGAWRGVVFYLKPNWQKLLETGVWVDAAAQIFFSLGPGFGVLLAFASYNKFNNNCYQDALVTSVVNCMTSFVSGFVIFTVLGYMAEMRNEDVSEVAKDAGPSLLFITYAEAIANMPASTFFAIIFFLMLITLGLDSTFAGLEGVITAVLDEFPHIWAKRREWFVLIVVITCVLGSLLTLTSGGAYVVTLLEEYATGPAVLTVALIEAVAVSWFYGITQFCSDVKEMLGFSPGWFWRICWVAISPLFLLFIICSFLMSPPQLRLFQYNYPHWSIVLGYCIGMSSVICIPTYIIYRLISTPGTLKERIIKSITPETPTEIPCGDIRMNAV

[5] = target: T3, Adrenergic receptor alpha-2 (Rattus norvegicus) (UniProt P22086+P19328+P22909); test: Reversal of medetomidine-induced loss of righting reflex in sc dosed Wistar rat after 1hr; format: functional, organism-based
[6] = target: Sodium-dependent serotonin transporter (Rattus norvegicus) (UniProt P31652); test: Antagonism of p-chloroamphetamine-induced 5HT depletion in sc dosed Wistar rat prefrontal cortex after 1 hr; format: functional, organism-based
[7] = target: Sodium-dependent serotonin transporter (Rattus norvegicus) (UniProt P31652); test: Antagonism of p-chloroamphetamine-induced excitation in sc dosed Wistar rat after 1 hr; format: functional, organism-based
[8] = target: T3, Adrenergic receptor alpha-2 (Rattus norvegicus); test: Reversal of medetomidine-induced loss of righting reflex in po dosed Wistar rat after 1hr; format: functional, organism-based
[9] = target: Sodium-dependent serotonin transporter (Rattus norvegicus) (UniProt P31652); test: Antagonism of p-chloroamphetamine-induced 5HT depletion in po dosed Wistar rat prefrontal cortex after 1 hr; format: functional, organism-based
[10] = target: Sodium-dependent dopamine transporter (Rattus norvegicus, UniProt P23977); test: Displacement of [3H]WIN-35428 from rat DAT
Sequence of Sodium-dependent dopamine transporter (P23977 whole entry): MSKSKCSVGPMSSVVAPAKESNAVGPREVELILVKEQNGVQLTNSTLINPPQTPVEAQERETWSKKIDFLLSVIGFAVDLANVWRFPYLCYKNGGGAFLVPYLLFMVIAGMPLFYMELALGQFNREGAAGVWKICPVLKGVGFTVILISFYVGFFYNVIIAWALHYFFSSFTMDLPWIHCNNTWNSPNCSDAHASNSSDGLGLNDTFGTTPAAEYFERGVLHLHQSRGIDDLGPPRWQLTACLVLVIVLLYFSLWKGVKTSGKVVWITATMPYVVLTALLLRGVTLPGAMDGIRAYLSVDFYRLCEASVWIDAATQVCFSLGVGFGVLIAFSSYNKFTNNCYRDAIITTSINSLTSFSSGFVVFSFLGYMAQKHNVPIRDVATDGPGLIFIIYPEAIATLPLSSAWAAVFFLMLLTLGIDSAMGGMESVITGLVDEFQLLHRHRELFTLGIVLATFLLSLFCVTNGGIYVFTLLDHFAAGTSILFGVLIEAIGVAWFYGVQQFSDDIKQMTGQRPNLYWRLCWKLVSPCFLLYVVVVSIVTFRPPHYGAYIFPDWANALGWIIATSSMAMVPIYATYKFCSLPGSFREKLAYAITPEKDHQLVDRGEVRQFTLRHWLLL

[11] = target: Substance-P receptor (Homo sapiens, UniProt P25103); test: Displacement of [3H]substance P from human cloned NK1 receptor
Sequence of Substance-P receptor (P25103 whole entry): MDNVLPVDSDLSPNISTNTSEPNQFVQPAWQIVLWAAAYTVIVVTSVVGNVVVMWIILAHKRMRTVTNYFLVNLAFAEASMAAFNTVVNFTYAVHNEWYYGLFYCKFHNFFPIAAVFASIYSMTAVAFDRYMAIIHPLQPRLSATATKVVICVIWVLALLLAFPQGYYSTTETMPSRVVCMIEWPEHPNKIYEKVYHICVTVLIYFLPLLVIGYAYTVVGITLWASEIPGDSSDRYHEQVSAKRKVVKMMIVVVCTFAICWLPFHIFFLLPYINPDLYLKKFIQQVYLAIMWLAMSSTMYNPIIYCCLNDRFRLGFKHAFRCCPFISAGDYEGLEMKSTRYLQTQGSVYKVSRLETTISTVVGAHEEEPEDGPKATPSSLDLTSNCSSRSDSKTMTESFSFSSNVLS

[12] = target: T4, Alpha-2A adrenergic receptor (Homo sapiens, UniProt P08913); test: Displacement of [3H]rawolscine from human cloned adrenergic alpha2A receptor transfected in CHO cells; format: cell-based
T4 sequence (P08913 whole entry): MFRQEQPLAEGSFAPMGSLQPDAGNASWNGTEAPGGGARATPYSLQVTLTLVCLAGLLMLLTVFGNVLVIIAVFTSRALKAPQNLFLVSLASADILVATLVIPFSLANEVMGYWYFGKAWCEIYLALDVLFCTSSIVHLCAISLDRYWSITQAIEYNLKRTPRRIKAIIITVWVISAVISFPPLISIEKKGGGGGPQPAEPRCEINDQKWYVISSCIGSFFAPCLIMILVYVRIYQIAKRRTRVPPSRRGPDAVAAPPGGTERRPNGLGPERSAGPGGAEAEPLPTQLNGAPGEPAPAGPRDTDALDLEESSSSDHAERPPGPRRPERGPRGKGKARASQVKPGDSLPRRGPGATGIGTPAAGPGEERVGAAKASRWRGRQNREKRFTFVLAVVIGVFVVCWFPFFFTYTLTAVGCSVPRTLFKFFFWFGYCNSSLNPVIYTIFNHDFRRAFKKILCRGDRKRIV

[13] = target: Norepinephrine transporter (Rattus norvegicus, UniProt Q9WTR4); test: Displacement of [3H]nisoxetine from rat NET
Sequence of Norepinephrine transporter (Q9WTR4 whole entry): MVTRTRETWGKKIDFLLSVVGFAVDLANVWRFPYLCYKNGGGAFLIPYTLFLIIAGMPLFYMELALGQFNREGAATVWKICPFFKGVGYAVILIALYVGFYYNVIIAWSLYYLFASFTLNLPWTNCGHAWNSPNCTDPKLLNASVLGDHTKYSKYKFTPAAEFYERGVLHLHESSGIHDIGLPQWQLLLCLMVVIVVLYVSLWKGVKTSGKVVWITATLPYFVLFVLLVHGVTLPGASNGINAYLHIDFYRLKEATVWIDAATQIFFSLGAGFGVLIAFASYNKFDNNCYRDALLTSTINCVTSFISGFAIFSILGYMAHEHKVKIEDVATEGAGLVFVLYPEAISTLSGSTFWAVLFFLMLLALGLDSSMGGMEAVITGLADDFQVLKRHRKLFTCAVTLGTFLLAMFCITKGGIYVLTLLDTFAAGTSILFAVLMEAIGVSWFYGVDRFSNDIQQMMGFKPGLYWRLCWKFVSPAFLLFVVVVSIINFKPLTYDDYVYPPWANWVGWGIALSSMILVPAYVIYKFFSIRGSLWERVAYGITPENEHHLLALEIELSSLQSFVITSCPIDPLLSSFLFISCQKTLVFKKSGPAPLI

[14] = target: T5, Alpha-1A adrenergic receptor (Homo sapiens, UniProt P35348); test: Displacement of [3H]prazosin from human cloned alpha-1A receptor
T5 sequence (P35348 whole entry): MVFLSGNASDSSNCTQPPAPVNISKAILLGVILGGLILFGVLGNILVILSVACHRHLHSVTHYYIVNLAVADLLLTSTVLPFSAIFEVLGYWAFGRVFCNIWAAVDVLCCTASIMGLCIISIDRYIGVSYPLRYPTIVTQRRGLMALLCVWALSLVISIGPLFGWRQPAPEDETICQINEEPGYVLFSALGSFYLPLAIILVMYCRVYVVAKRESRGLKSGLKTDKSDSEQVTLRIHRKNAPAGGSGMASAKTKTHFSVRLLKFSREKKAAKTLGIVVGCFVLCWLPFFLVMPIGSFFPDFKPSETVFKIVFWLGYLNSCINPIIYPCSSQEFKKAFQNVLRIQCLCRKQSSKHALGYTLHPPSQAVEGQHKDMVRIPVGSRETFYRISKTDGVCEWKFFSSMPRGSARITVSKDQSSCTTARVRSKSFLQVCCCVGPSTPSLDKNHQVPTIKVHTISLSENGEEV

[15] = target: D(3) dopamine receptor (Homo sapiens, UniProt P35462); test: Displacement of [125I]iodosulpiride from human cloned dopamine D3 receptor
Sequence of D(3) dopamine receptor (P35462 whole entry): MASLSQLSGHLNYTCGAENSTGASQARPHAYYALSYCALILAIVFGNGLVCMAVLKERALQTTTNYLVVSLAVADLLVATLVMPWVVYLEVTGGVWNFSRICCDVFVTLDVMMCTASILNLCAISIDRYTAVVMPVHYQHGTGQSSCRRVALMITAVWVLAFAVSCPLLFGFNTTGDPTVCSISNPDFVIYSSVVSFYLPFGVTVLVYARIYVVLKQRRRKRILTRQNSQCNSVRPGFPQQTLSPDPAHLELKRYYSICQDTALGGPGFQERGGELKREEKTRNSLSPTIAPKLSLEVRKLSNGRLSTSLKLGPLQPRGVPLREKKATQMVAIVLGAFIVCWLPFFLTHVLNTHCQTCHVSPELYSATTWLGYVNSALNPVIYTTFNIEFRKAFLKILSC

[16] = target: Histamine H1 receptor (Homo sapiens, UniProt P35367); test: Displacement of [3H]pyrilamine from human cloned histamine H1 receptor
Sequence of Histamine H1 receptor (P35367 whole entry): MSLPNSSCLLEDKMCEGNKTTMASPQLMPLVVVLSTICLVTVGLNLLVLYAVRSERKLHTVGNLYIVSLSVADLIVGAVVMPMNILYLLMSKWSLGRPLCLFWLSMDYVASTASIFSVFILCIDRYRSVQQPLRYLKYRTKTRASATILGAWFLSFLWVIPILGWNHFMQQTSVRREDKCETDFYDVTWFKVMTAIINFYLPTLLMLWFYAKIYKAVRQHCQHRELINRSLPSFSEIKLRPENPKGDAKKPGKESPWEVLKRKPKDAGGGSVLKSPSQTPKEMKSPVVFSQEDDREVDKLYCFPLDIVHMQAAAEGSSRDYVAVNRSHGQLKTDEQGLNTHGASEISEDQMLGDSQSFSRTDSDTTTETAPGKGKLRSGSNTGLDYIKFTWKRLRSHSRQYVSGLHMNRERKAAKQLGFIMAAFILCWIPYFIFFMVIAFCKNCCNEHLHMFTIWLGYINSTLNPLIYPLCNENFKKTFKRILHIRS

[17] = target: T3, Adrenergic receptor alpha-2 (Rattus norvegicus); test: Reversal of medetomidine-induced loss of righting reflex in po dosed Wistar rat after 1 hr; format: functional, organism-based
[18] = target: T6, Alpha-2B adrenergic receptor (Homo sapiens) (UniProt P18089); test: Agonist activity at human adrenergic alpha-2B receptor transfected in CHO cells by [35S]GTPgammaS binding assay; format: functional, cell-based
T6 sequence (whole entry): T2 sequence (P18089 whole entry)

[19] = target: T3, Adrenergic receptor alpha-2 (Rattus norvegicus); test: Reversal of medetomidine-induced loss of righting reflex in sc dosed Wistar rat after 4 hrs; format: functional, organism-based
[20] = target: T3, Adrenergic receptor alpha-2 (Rattus norvegicus); test: Reversal of medetomidine-induced loss of righting reflex in po dosed Wistar rat after 16 hrs; format: functional, organism-based
[21] = target: T3, Adrenergic receptor alpha-2 (Rattus norvegicus); test: Reversal of medetomidine-induced loss of righting reflex in po dosed Wistar rat after 0.5 hrs; format: functional, organism-based
[22] = target: T7, Alpha-2C adrenergic receptor (Homo sapiens) (UniProt P18825); test: Agonist activity at human adrenergic Alpha-2C receptor transfected in CHO cells by [35S]GTPgammaS binding assay; format: functional, cell-based
T7 sequence (whole entry): T1 sequence (P18825 whole entry)

[23] = target: T3, Adrenergic receptor alpha-2 (Rattus norvegicus); test: Reversal of medetomidine-induced loss of righting reflex in sc dosed Wistar rat after 8 hrs; format: functional, organism-based
[24] = target: T3, Adrenergic receptor alpha-2 (Rattus norvegicus); test: Receptor occupancy ex vivo by displacement of [3H]idazoxan binding from alpha-2 adrenoceptor in sc dosed Wistar rat entorhinal cortex after 1 hr; format: functional, organism-based
[25] = target: T3, Adrenergic receptor alpha-2 (Rattus norvegicus); test: Reversal of medetomidine-induced loss of righting reflex in po dosed Wistar rat after 2 hrs; format: functional, organism-based
[26] = target: T3, Adrenergic receptor alpha-2 (Rattus norvegicus); test: Reversal of medetomidine-induced loss of righting reflex in sc dosed Wistar rat after 0.5 hrs; format: functional, organism-based
[27] = target: T3, Adrenergic receptor alpha-2 (Rattus norvegicus); test: Reversal of medetomidine-induced loss of righting reflex in sc dosed Wistar rat after 1 hr; format: functional, organism-based
[28] = target: T6, Alpha-2B adrenergic receptor (Homo sapiens); test: Antagonist activity at human alpha-2B receptor transfected in CHO cells by [35S]GTPgammaS binding assay; format: functional, cell-based
[29] = target: T7, Alpha-2C adrenergic receptor (Homo sapiens); test: Antagonist activity at human alpha-2C receptor transfected in CHO cells by [35S]GTPgammaS binding assay; format: functional, cell-based
[30] = target: T3, Adrenergic receptor alpha-2 (Rattus norvegicus); test: Reversal of medetomidine-induced loss of righting reflex in sc dosed Wistar rat after 16 hrs; format: functional, organism-based
[31] = target: T3, Adrenergic receptor alpha-2 (Rattus norvegicus); test: Receptor occupancy ex vivo by displacement of [3H]idazoxan binding from alpha-2 adrenoceptor in po dosed Wistar rat entorhinal cortex after 1 hr; format: functional, organism-based
[32] = target: T3, Adrenergic receptor alpha-2 (Rattus norvegicus); test: Reversal of medetomidine-induced loss of righting reflex in po dosed Wistar rat after 4 hrs; format: functional, organism-based
[33] = target: T3, Adrenergic receptor alpha-2 (Rattus norvegicus); test: Reversal of medetomidine-induced loss of righting reflex in sc dosed Wistar rat after 2 hrs; format: functional, organism-based
[34] = target: T3, Adrenergic receptor alpha-2 (Rattus norvegicus); test: Reversal of medetomidine-induced loss of righting reflex in po dosed Wistar rat after 8 hrs; format: functional, organism-based
[35] = target: T3, Adrenergic receptor alpha-2 (Rattus norvegicus); test: Reversal of medetomidine-induced loss of righting reflex in sc dosed Wistar rat after 32 hrs; format: functional, organism-based

COc1cc2c(cc1OC)C1=NOC(CN3CCN(C/C(C)=C/c4ccccc4)CC3)C1CN2 (single isomer, unassigned; (+)) [listing 1 of 2 here]
Ki [1]: 0.93 nM | Ki [2]: 79 nM | Ki [3]: 4.5 nM

COc1cc2c(cc1OC)C1=NOC(CN3CCN(C/C(C)=C/c4ccccc4)CC3)C1CN2 (single isomer, unassigned; (+)) [listing 2 of 2 here]
ED50 [4]: > 10 mg/kg | ED50 [5]: 0.08 mg/kg | ED50 [6]: 4.1 mg/kg | ED50 [7]: > 10 mg/kg | ED50 [8]: 0.63 mg/kg

COc1cc2c(cc1OC)C1=NOC(CN3CCN(C/C=C/c4ccc(F)cc4)CC3)C1CO2 (single isomer, unassigned; (+))
ED50 [4]: 0.32 mg/kg | ED50 [5]: 3.1 mg/kg | ED50 [9]: 0.05 mg/kg | ED50 [6]: 0.03 mg/kg | ED50 [7]: 0.05 mg/kg | ED50 [8]: 3.5 mg/kg

COc1cc2c(cc1OC)C1=NOC(CN3CCN(C/C(C)=C/c4ccccc4)CC3)C1CN2 (single isomer, unassigned; (-)) [listing 1 of 2 here]
Ki [1]: 8.3 nM | Ki [2]: 24 nM | Ki [3]: 26 nM

COc1cc2c(cc1OC)C1=NOC(CN3CCN(C/C(C)=C/c4ccccc4)CC3)C1CN2 (single isomer, unassigned; (-)) [listing 2 of 2 here]
ED50 [4]: 3.2 mg/kg | ED50 [5]: > 10 mg/kg | ED50 [6]: 0.81 mg/kg | ED50 [7]: 0.32 mg/kg | ED50 [8]: > 10 mg/kg

COc1cc2c(cc1OC)C1=NO[C@@H](CN3CCN(C/C(C)=C/c4ccc(F)cc4)CC3)[C@@H]1CO2 (stereo in doubt; form 1) [listing 1 of 2 here]
Ki [1]: 0.27 nM | Ki [10]: 583 nM | Ki [11]: 310 nM | Ki [12]: 3.1 nM | Ki [13]: 70 nM | Ki [14]: 125 nM | Ki [3]: 1.5 nM | Ki [15]: 375 nM | Ki [16]: 74 nM

COc1cc2c(cc1OC)C1=NO[C@@H](CN3CCN(C/C(C)=C/c4ccc(F)cc4)CC3)[C@@H]1CO2 (stereo in doubt; form 1) [listing 2 of 2 here]
ED50 [17]: 1.3 mg/kg | Activity [18]: inactive | ED50 [5]: 2.7 mg/kg | ED50 [19]: 2.3 mg/kg | ED50 [20]: 25 mg/kg | ED50 [21]: 1 mg/kg | Activity [22]: inactive | ED50 [23]: 4.7 mg/kg | ED50 [24]: 2.6 mg/kg | ED50 [25]: 2.7 mg/kg | ED50 [26]: 1.2 mg/kg | ED50 [27]: 2.7 mg/kg | Kb [28]: 1.4 nM | Kb [29]: 0.91 nM | ED50 [30]: 7.1 mg/kg | ED50 [31]: 8.8 mg/kg | ED50 [32]: 3.6 mg/kg | ED50 [33]: 4.1 mg/kg | ED50 [8]: 1.3 mg/kg | ED50 [34]: 9.3 mg/kg | ED50 [35]: > 10 mg/kg

COc1cc2c(cc1OC)C1=NO[C@@H](CN3CCN(C/C(C)=C/c4ccc(F)cc4)CC3)[C@@H]1CO2 (stereo in doubt; form 2) [listing 1 of 2 here]
Ki [1]: 10 nM | Ki [12]: 28 nM | Ki [3]: 21 nM

COc1cc2c(cc1OC)C1=NO[C@@H](CN3CCN(C/C(C)=C/c4ccc(F)cc4)CC3)[C@@H]1CO2 (stereo in doubt; form 2) [listing 2 of 2 here]
ED50 [5]: 5 mg/kg
